# Test results taken from patent publication US11506670B2, “Method of genome-wide direct identification of electrophile-sensing targets” (Cornell University, priority 2018, dated 2022).
# Tested on: Ube2V2 ubiquitination and cellular Ub pools
# Assay: Ubiquitination analysis by IP, K63-TUBE pulldown and western blot in HEK293T cells
# Type: cell-based, human
# Method: Cells were lysed in 1×RIPA buffer containing in final concentrations 1× Protease inhibitor, 1 mM sodium orthovanadate and 1 mM PMSF, by rapid freeze-thaw (×3). Cell debris was removed and the supernatant was collected after centrifugation at 18,000×g for 20 min at 4° C. Protein concentration was determined using Bradford assay. 30-50 μg of total lysates were subjected to SDS-PAGE and the gel was transferred onto a PVDF membrane at 100 V for 1 h at 4° C. or at 40 V overnight at 4° C. Membrane was blocked with 10% milk and probed with various antibodies at the indicated dilutions (Table 4, above).
# HEK 293T cells were seeded in 2×60 cm^2 plates. After the cells reached 60% confluence (˜18-24 h), the old media was replaced with 8 mL of fresh complete media. Cells were transfected with 7.5 μg of the designated Halo clone and 30 μL PEI (1 mg/mL) in 600 μL in Opti-MEM media for 24-36 h after which the cells were treated with 25 μM Ht-PreHNE for 2.5 h. Rinsing and light shining protocol were as described above. Cells were harvested, pooled, washed twice with chilled 1×DPBS and flash frozen. Cell lysis was performed in 100-200 μL per 1.5×10^6 cells of either: lysis buffer [containing in final concentrations 50 mM HEPES (pH 7.6), 150 mM NaCl, 1% Nonidet P-40 and 1× Roche cOmplete, mini, EDTA-free protease inhibitor cocktail] for Flag pull down; or RIPA buffer [containing in final concentrations 50 mM HEPES (pH 7.6), 150 mM NaCl, 1% Nonidet P-40, 0.1% SDS, 0.25% sodium deoxycholate, and 1× Roche cOmplete, mini, EDTA-free protease inhibitor cocktail] for HA pull down, followed by rapid freeze-thaw cycles (×3). Lysate was clarified by centrifugation at 18,000×g for 10 min at 4° C. Total protein concentration was determined using Bradford assay with BSA as standard. The lysate was subsequently diluted to 2 mg/mL with binding buffer containing in final concentrations 50 mM HEPES (pH 7.6), 150 mM NaCl, 1× Roche cOmplete, mini, EDTA-free protease inhibitor cocktail, and 0.1% Tween-20. This diluted lysate was subjected to either 50-100 μL bed volume of ANTI-FLAG® M2 affinity gel (A2220, Sigma) or monoclonal anti-HA-agarose (clone HA-7, A2095, Sigma) that had been pre-equilibrated with the binding buffer above. The sample was incubated with beads for 2-3 h at 4° C. by end-over-end rotation after which time the supernatant was removed post-centrifugation at 1000×g (anti-FLAG pull down) or 5000×g (anti-HA pull down) for 3 min. The beads were washed three times at 4° C. with 500 μL wash buffer containing in final concentrations 50 mM HEPES (pH 7.6), 150 mM NaCl, 1× Roche cOmplete, mini, EDTA-free protease inhibitor cocktail, and 0.1% Tween-20, using end-over-end rotation over 10 min during each wash. The bound protein was eluted by either incubating with 0.15 mg/mL 3× flag peptide for 2 h at 4° C. (anti-Flag pull down) or by boiling the beads at 98° C. for 10 min with 30 μL of 3× Laemmeli dye containing 6% βME (anti-HA pull down). The sample was subjected to SDS-PAGE and transferred to a PVDF membrane for western blot analysis described above.
# Cells were grown and transfected as described above. After T-REX™ delivery, cells were harvested and lysed in 100-200 μL (˜1.5×10^6 cells) of lysis buffer [containing in final concentrations 50 mM HEPES (pH 7.6), 300 nM Biotin K63-TUBE, 150 mM NaCl, 5 mM EDTA, 3 mM 1,10-phenanthroline, 5 mM NEM, 20 μM PR-619, 1% Nonidet P-40 and 1× Roche cOmplete, mini, EDTA-free protease inhibitor cocktail] according to manufactures' manual (Biotin K63 TUBE, Lifesensors). Lysate was clarified by centrifugation at 18,000×g for 10 min at 4° C. Total protein concentration was determined using Bradford assay using BSA as standard. […]
smiles,measurement,setting,value
"CCCCCC(O)/C=C/C=O (stereo not drawn) [HNE, 4-hydroxynonenal]",K63-linked total cellular Ub pools,HEK293T,did not alter K63-linked total cellular Ub pools
same,pan cellular poly-Ub-pools,HEK293T,no effect
same,K63-linked ubiquitination of Ube2V2 upon T-REX delivery,"cells expressing wt-Ube2V2, not C69S",significantly upregulated
